Laboratory results as given in ChEMBL document CHEMBL1138604, “Structure-activity relationships of lipopolysaccharide sequestration in N-alkylpolyamines” (Bioorg Med Chem Lett, 2009).
The source made the active and inactive calls. The calls are words filed in the database; no cut-off is given here.

System: HEK293
Experiment: Inhibition of LPS-induced NF-kappaB nuclear transactivation in HEK293 cells transfected with TLR4 coexpressing MD2 and CD14 co-receptor assessed as alkaline phosphatase activity by spectrophotometry
Type: cell-based
Conditions: Homo sapiens

Compound | Activity
CCCCCCCCCCCCCCCCNCCCNCCCNCCCNCCCNCCCN | Active
CCCCCCCCCCCCCCCCNCCCNCCCCNCCCN | Active
CCCCCCCCCCCCCCCCNCCCNCCCNCCCNCCCN | Active
CCCCCCCCCCCCCCCCNCCCNCCCNCCCCNCCCN | Active
CCCCCCCCCCCCCCCCNCCCNCCCNCCCCNCCCNCCCN | Active
CCCCCCCCCCCCCCCCNCCCNCCCNCCCN | Active
